Drawing on US20240124485A1, “SUBSTITUTED AMIDE MACROCYCLIC COMPOUNDS WITH OREXIN-2 RECEPTOR AGONIST ACTIVITY” (Alkermes, Inc., priority 2021, published 2024), this text covers EC50 for 26 compounds.

The experiment deals with T1, human orexin-2 receptor (OX2R) (Homo sapiens, UniProt O43614).
T1 construct: expressed in transfected cells
T1 sequence (O43614 1-444): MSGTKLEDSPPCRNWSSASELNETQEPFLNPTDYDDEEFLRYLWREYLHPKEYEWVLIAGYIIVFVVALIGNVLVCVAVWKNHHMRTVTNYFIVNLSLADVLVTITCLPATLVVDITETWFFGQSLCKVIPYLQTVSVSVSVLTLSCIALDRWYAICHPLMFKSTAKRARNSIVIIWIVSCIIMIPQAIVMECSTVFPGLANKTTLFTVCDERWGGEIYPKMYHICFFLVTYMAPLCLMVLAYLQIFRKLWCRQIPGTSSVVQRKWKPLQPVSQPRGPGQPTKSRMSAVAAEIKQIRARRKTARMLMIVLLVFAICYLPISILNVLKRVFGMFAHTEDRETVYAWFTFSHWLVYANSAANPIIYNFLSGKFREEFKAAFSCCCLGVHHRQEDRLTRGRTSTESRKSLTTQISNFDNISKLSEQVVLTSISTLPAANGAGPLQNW
Description: Human OX2R IP1 assay. In kind it is cell-based. Particulars: T-Rex CHO cells stably overexpressing the human orexin-2 receptor; IP1 accumulation, 1 hr at 37 degrees C. As to the method: T-Rex CHO cells stably overexpressing the human orexin-2 receptor (OX2R) were induced overnight with 1 μg/mL of doxycycline in a T225 flask. 24 hours post induction, cells were lifted with accutase and plated into a 384-well proxy plate at 30,000 cells/well. Cells were then treated with different test compounds in 1× stimulation buffer containing 10 mM Hepes, 1 mM CaCl2), 0.5 mM MgCl2, 4.2 mM KCl, 146 mM NaCl, 5.5 mM glucose, and 50 mM LiCl, pH 7.4, for 1 hr at 37 degrees C. Following incubation, the reaction was terminated by the addition of detection mix, which is composed of IP1-d2 and anti-IP1-cryptate diluted in lysis buffer as well as 1× stimulation buffer. The plates were allowed to incubate for 1 hour at room temperature and were then read in the ENVISION® multimode plate reader, measuring inositol phosphate levels.
Cisbio IP1 is a cell-based functional assay quantifying the accumulation of inositol monophosphate (IP), a metabolite released as a result of orexin 2 receptor activation through the phospholipase C-Gq signaling pathway. This is a competitive immunoassay in which the IP1 produced by the cells upon receptor activation competes with the IP1 analog coupled to the d2 fluorophore (acceptor) for binding to an anti-IP1 monoclonal antibody labeled with Eucryptate (donor). The measured HTRF-FRET based signal is inversely proportional to the IP1 concentration produced.
The EC50 values reported in Table 2 were obtained according to the human OX2R IP1 assay described above. Data are the mean EC50 values ±S.E.M.

As a reminder, the EC50 is the concentration at which the effect is half-maximal. `O=C(N[C@H]1CCCN2C(=O)COc3ccccc3C3CCC(CC3)OC[C@@H]12)C1COCCO1` (stereo in doubt) [Compound 1] gave an EC50 of under 100 nM.
The compound `O=C(N[C@H]1CCCN2C(=O)COc3ccccc3C3CCC(CC3)OC[C@@H]12)C1CCCCO1` (stereo in doubt) [Compound 2] registered an EC50 of under 100 nM.
For the compound `COCC(=O)N[C@H]1CCCN2C(=O)COc3ccccc3[C@H]3CC[C@H](CC3)OC[C@@H]12` (stereo in doubt) [Compound 3], the EC50 is under 100 nM.
In turn, `O=C(N[C@H]1CCCN2C(=O)COc3ccccc3C3CCC(CC3)OC[C@@H]12)C1CCCOC1` (stereo in doubt) [Compound 4] registered an EC50 of 100 to 1000 nM.
`O=C(N[C@H]1CCCN2C(=O)COc3ccccc3C3CCC(CC3)OC[C@@H]12)C1CCOC1` (stereo in doubt) [Compound 5] returned an EC50 of 100 to 1000 nM.
With `O=C(N[C@H]1CCCN2C(=O)COc3ccccc3C3CCC(CC3)OC[C@@H]12)C1CCOC1` (stereo in doubt) [Compound 6] the figure was 100 to 1000 nM; with `O=C(N[C@H]1CCCN2C(=O)COc3ccccc3C3CCC(CC3)OC[C@@H]12)C1COCCO1` (stereo in doubt) [Compound 8], 100 to 1000 nM; with `O=C(N[C@H]1CCCN2C(=O)COc3ccccc3C3CCC(CC3)OC[C@@H]12)C1CCO1` (stereo in doubt) [Compound 9], 100 to 1000 nM.
With `O=C(N[C@H]1CCCN2C(=O)COc3ccccc3C3CCC(CC3)OC[C@@H]12)C1CCCO1` (stereo in doubt) [Compound 10] the figure was under 100 nM; with `O=C(N[C@H]1CCCN2C(=O)COc3ccccc3C3CCC(CC3)OC[C@@H]12)C1CCCOC1` (stereo in doubt) [Compound 11], 100 to 1000 nM; with `O=C(N[C@H]1CCCN2C(=O)COc3ccccc3C3CCC(CC3)OC[C@@H]12)C1CCO1` (stereo in doubt) [Compound 12], under 100 nM.
For `Cc1ccnc2c1C1CCC(CC1)OC[C@H]1[C@@H](NC(=O)C3CCCO3)CCCN1C(=O)CO2` (stereo in doubt) [Compound 13] the value was under 100 nM.
As for `Cc1cccc2c1C1CCC(CC1)OC[C@H]1[C@@H](NC(=O)C3CCCO3)CCCN1C(=O)CO2` (stereo in doubt) [Compound 14], the EC50 is under 100 nM.
For the compound `CN(C)C(=O)C(=O)N[C@H]1CCCN2C(=O)COc3ccccc3[C@H]3CC[C@H](CC3)OC[C@@H]12` [Compound 7], the EC50 is under 100 nM.
The compound `Cc1cccc2c1C1CCC(CC1)OCC1[C@@H](NC(=O)C3CCCO3)CCCN1C(=O)CO2` (some centres unmarked) [Compound 15] displayed an EC50 of under 100 nM.
The compound `O=C(N[C@H]1CCCN2C(=O)COc3ccccc3[C@H]3CC[C@H](CC3)OC[C@@H]12)C1COC1` [Compound 16] came in with an EC50 of under 100 nM.
Regarding `Cc1ccnc2c1C1CCC(CC1)OCC1[C@@H](NC(=O)C3CCCO3)CCCN1C(=O)CO2` (some centres unmarked) [Compound 17], the EC50 is under 100 nM.
Compound `O=C(N[C@H]1CCCN2C(=O)COc3ccccc3[C@H]3CC[C@H](CC3)OC[C@@H]12)c1ncco1` [Compound 18] displayed an EC50 of over 1000 nM.
`CN1CCC1C(=O)N[C@H]1CCCN2C(=O)COc3ccccc3C3CCC(CC3)OCC12` (some centres unmarked) [Compound 19]: the EC50 was over 1000 nM.
`O=C(N[C@H]1CCCN2C(=O)COc3ccccc3C3CCC(CC3)OCC12)C1CCCCO1` (some centres unmarked) [Compound 20] yielded an EC50 of over 1000 nM.
The compound `CN1CCOC(C(=O)N[C@H]2CCCN3C(=O)COc4ccccc4C4CCC(CC4)OCC23)C1` (some centres unmarked) [Compound 21] had an EC50 of over 1000 nM.
`CN1CCCC1C(=O)N[C@H]1CCCN2C(=O)COc3ccccc3C3CCC(CC3)OCC12` (some centres unmarked) [Compound 22] registered an EC50 of over 1000 nM.
For `CN1CCC1C(=O)N[C@H]1CCCN2C(=O)COc3ccccc3C3CCC(CC3)OCC12` (some centres unmarked) [Compound 23] the value was over 1000 nM.
In turn, `CN1CCCC1C(=O)N[C@H]1CCCN2C(=O)COc3ccccc3C3CCC(CC3)OCC12` (some centres unmarked) [Compound 24] gave an EC50 of over 1000 nM.
`CN1CCOC(C(=O)N[C@H]2CCCN3C(=O)COc4ccccc4C4CCC(CC4)OCC23)C1` (some centres unmarked) [Compound 25]: the EC50 was over 1000 nM.
Take `COC1(C(=O)N[C@H]2CCCN3C(=O)COc4ccccc4[C@H]4CC[C@H](CC4)OC[C@@H]23)CC1` [Compound 89]: the EC50 is over 1000 nM.
